From ChEMBL document CHEMBL1201862, “PubChem BioAssay data set” (2004)
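Method: 48-hour compound exposure of cells in 96-well plates, five concentrations, linear interpolation of endpoints. GI50: concentration for 50% inhibition of growth.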 The source made the active and inactive calls. Cut-off read from the data, not from the text of the source: active = GI50 up to about 1.1 µM and inactive = higher. Where a SMILES comes first, the peptide text is derived from it. [ ]: non-standard residue; d: D form. The star is where a group is joined. ξ: configuration not given here. ξF = NC(Cc1ccccc1)C(=O)O; Cbz = O=C(OCc1ccccc1)*; Aib = CC(C)(N)C(=O)O

How the values were obtained:
Experiment in all cases: NCI-60 cell line screen, 48 h
DMS-114 = tested on: DMS-114
DLD-1 = tested on: DLD-1
HOP-18 = tested on: HOP-18
MDA-MB-231 = tested on: MDA-MB-231
T47D = tested on: T47D
Hs-578T = tested on: Hs-578T
LXFL 529 = tested on: LXFL 529
RXF 631 = tested on: RXF 631
786-0 = tested on: 786-0

| Structure (SMILES) | GI50 (DMS-114) | GI50 (DLD-1) | GI50 (HOP-18) | GI50 (MDA-MB-231) | GI50 (T47D) | also measured |
| --- | --- | --- | --- | --- | --- | --- |
| O=NN(CCF)C(=O)NC1CCSCC1 | > 100 µM (inactive) | > 100 µM (inactive) | > 100 µM (inactive) | – | – | – |
| COc1nc(O)c(N)c(NC2OC(CO)C(O)C(O)C2O)n1 (centres undefined) | > 100 µM (inactive) | > 100 µM (inactive) | > 100 µM (inactive) | – | – | – |
| CCN(CC)C(=S)N/N=C(\C)c1cccc(C)n1 | – | – | – | < 0.01 µM (active) | < 0.01 µM (active) | GI50 (Hs-578T): 23.4 µM (inactive) |
| CCC(C(C)N1CC(=O)NC(=O)C1)N1CC(=O)NC(=O)C1 (centres undefined) | 7.01 µM (inactive) | > 31.3 µM (inactive) | > 100 µM (inactive) | – | – | – |
| COc1ccccc1C1C(C(=O)O)=C(CO)Oc2cc3c(cc21)OCO3 (centres undefined) | > 100 µM (inactive) | – | > 100 µM (inactive) | – | – | GI50 (LXFL 529): > 100 µM (inactive) |
| CN(C)C(=S)SCc1ccccc1 | – | – | – | 99.1 µM (inactive) | 0.033 µM (active) | GI50 (Hs-578T): > 100 µM (inactive) |
| CCCCSCC(NC(=O)/C=C/c1c(C)[nH]c(=O)[nH]c1=O)C(=O)OC (centres undefined) | 30.1 µM (inactive) | 54.8 µM (inactive) | 61.2 µM (inactive) | – | – | – |
| CC1C/C(=C\c2ccc(O)c(O)c2)C(=O)/C(=C/c2ccc(O)c(O)c2)C1 (centres undefined) | – | – | – | 11.3 µM (inactive) | 4.57 µM (inactive) | GI50 (Hs-578T): 4.06 µM (inactive) |
| Cc1ccccc1NC(=O)CC(=O)N1N=C(N2c3ccccc3Sc3ccccc32)CC1c1ccccc1 (centres undefined) | > 100 µM (inactive) | > 100 µM (inactive) | – | – | – | GI50 (RXF 631): > 100 µM (inactive); GI50 (LXFL 529): > 100 µM (inactive) |
| CCCOC(=O)CCC(NC(=O)c1ccc(Nc2nc3ccccc3nc2-c2cccs2)cc1)C(=O)OCCC (centres undefined) | – | – | > 100 µM (inactive) | – | – | GI50 (RXF 631): > 100 µM (inactive); GI50 (LXFL 529): > 100 µM (inactive) |
| Cc1cc(Cl)ccc1/N=C1/NC(=O)C(CC(=O)Nc2cccc(C)c2C)S1 (centres undefined) | 22.8 µM (inactive) | 33.4 µM (inactive) | – | – | – | GI50 (786-0): 20.8 µM (inactive); GI50 (RXF 631): 26.4 µM (inactive) |
| Cc1cccc2c1Sc1ccccc1C2NC(=O)CN(C)C (centres undefined) | > 100 µM (inactive) | – | – | – | – | GI50 (LXFL 529): > 100 µM (inactive) |
| Nc1nc(=S)[nH]c2nc3c(c(-c4ccccc4)c12)CCCC3 | – | – | – | > 100 µM (inactive) | 60.1 µM (inactive) | GI50 (Hs-578T): 51.9 µM (inactive) |
| COC1CCC(OS(C)(=O)=O)CO1 (centres undefined) | > 100 µM (inactive) | – | – | – | – | GI50 (LXFL 529): > 100 µM (inactive) |
| CC1(C)CC23C4COC(=O)C2CCC1C3CC4=O (centres undefined) | – | 11.2 µM (inactive) | 1.72 µM (inactive) | – | – | – |
| C=CC(Br)(CBr)CCC(Cl)C(C)C (centres undefined) | – | – | – | 1.4 µM (inactive) | – | GI50 (Hs-578T): 2.58 µM (inactive) |
| CC(C)=CCC/C(C)=C/CC/C(C)=C/CC/C(=C/CC/C(C)=C\CC/C(C)=C/CC/C(C)=C/CC/C(C)=C/Cc1cc(O)ccc1O)CO | – | – | – | 27.3 µM (inactive) | 6.05 µM (inactive) | GI50 (786-0): 2.98 µM (inactive); GI50 (Hs-578T): 2.51 µM (inactive) |
| O=Cc1c(Br)[nH]c2ccccc12 | – | > 100 µM (inactive) | 61.1 µM (inactive) | – | – | – |
| NC(=O)OCC1=C(COC(N)=O)C(=O)c2c(O)ccc(O)c2C1=O | > 100 µM (inactive) | > 100 µM (inactive) | > 100 µM (inactive) | – | – | GI50 (LXFL 529): > 100 µM (inactive) |
| O=C(NCCCNC(=O)c1ccc2cc(O)c(O)cc2c1)c1ccc2cc(O)c(O)cc2c1 | – | – | – | – | 26.7 µM (inactive) | – |
| COC(=O)C(C)(C)NC(=O)C(Cc1ccccc1)NC(=O)C(C)(C)NC(=O)OCc1ccccc1 (centres undefined) (Cbz-[Aib]-[ξF]-[Aib]-OMe) | – | – | – | > 100 µM (inactive) | > 100 µM (inactive) | – |
